Experimental data: ChEMBL document CHEMBL4831548, “Sesquiterpene Lactones from Sigesbeckia glabrescens Possessing Potent Anti-inflammatory Activity by Directly Binding to IKKα/β” (J Nat Prod, 2021)
Active and inactive are the calls of the source. The calls are words filed in the database; no cut-off is given here.

Legend:
RAW264.7 [1] = test: Anti-inflammatory activity against LPS-stimulated mouse RAW264.7 cells assessed as decrease in IL-1 beta production at 3 uM preincubated for 2 hrs followed by LPS stimulation and measured after 24 hrs by ELISA assay; assay type: functional, cell-based; settings: time 26.0 hrs
RAW264.7 [2] = test: Inhibition of LPS-induced PGE2 production in mouse RAW264.7 cells at 3 uM preincubated for 2 hrs followed by LPS stimulation and measured after 24 hrs by ELISA assay; assay type: functional, cell-based; settings: time 26.0 hrs
RAW264.7 [3] = test: Anti-inflammatory activity against LPS-stimulated mouse RAW264.7 cells assessed as decrease in IL-6 production at 3 uM preincubated for 2 hrs followed by LPS stimulation and measured after 24 hrs by ELISA assay; assay type: functional, cell-based; settings: time 26.0 hrs
RAW264.7 [4] = test: Inhibition of LPS-induced NO production in mouse RAW264.7 cells preincubated for 2 hrs followed by LPS stimulation for 24 hrs by Griess reagent based assay; assay type: functional, cell-based
RAW264.7 [5] = test: Inhibition of LPS-induced NO production in mouse RAW264.7 cells at 3 uM incubated for 2 hrs followed by LPS stimulation and measured after 24 hrs by Griess reagent based assay; assay type: functional, cell-based; settings: time 26.0 hrs
RAW264.7 [6] = test: Anti-inflammatory activity against LPS-stimulated mouse RAW264.7 cells assessed as decrease in TNF-alpha production at 3 uM preincubated for 2 hrs followed by LPS stimulation and measured after 24 hrs by ELISA assay; assay type: functional, cell-based; settings: time 26.0 hrs
RAW264.7 [7] = test: Cytotoxicity against mouse RAW264.7 cells assessed as effect on cell viability up to 20 uM measured after 24 hrs by CCK8 assay; assay type: cell-based; settings: raw264.7, 24 h
RAW264.7 [8] = test: Inhibition of LPS-induced PGE2 production in mouse RAW264.7 cells preincubated for 2 hrs followed by LPS stimulation and measured after 24 hrs by ELISA assay; assay type: functional, cell-based; settings: dose 0.75-3 µM, time 26.0 hrs
[9] = target: T1, Inhibitor of nuclear factor kappa-B kinase subunit alpha/beta (Mus musculus) (UniProt Q60680+O88351); test: Inhibition of IKKalpha/beta in LPS-stimulated mouse RAW264.7 cells assessed as decrease in IkappaB degradation at 3 uM preincubated for 2 hrs followed by LPS stimulation for 10 mins by immunoblotting assay; settings: time 130.0 min
[10] = target: Inhibitor of NF-kappa-B kinase alpha/beta (Homo sapiens) (UniProt O14920+O15111); test: Inhibition of IKKalpha/beta in human HEK293T cells assessed as reduction in thermal stability at 50 uM incubated for 30 mins followed by heating at temperature between 58 to 60 degC for 3 mins by CETSA analysis; assay type: cell-based; settings: time 33.0 min
RAW264.7 [11] = test: Anti-inflammatory activity against LPS-stimulated mouse RAW264.7 cells assessed as decrease in IL-6 production at 0.75 to 3 uM preincubated for 2 hrs followed by LPS stimulation and measured after 24 hrs by ELISA assay; assay type: functional, cell-based; settings: dose 0.75-3 µM, time 26.0 hrs
[12] = target: c-Jun N-terminal kinase (Mus musculus) (UniProt Q91Y86+Q9WTU6+Q61831); test: Inhibition of JNK phosphorylation in LPS-induced mouse RAW264.7 cells at 0.75 to 3 uM preincubated for 2 hrs followed by LPS stimulation and measured after 30 mins by immunoblotting assay; settings: dose 0.75-3 µM, time 150.0 min
[13] = Covalent binding affinity to dithiothreitol assessed as compound-DTT adduct formation at 50 uM incubated for 30 mins by UPLC-MS analysis
[14] = target: T1, Inhibitor of nuclear factor kappa-B kinase subunit alpha/beta (Mus musculus); test: Inhibition of IKKalpha/beta in LPS-stimulated mouse RAW264.7 cells assessed as inhibition of NFkB p65 nuclear translocation at 3 uM preincubated for 2 hrs followed by LPS stimulation for 30 mins by immunoblotting assay; settings: time 150.0 min
RAW264.7 [15] = test: Inhibition of LPS-induced iNOS protein expression in mouse RAW264.7 cells at 0.75 to 3 uM preincubated for 2 hrs followed by LPS stimulation for 24 hrs by Western blot analysis; assay type: functional, cell-based; settings: dose 0.75-3 µM, time 26.0 hrs
RAW264.7 [16] = test: Anti-inflammatory activity against LPS-stimulated mouse RAW264.7 cells assessed as decrease in IL-1 beta production at 0.75 to 3 uM preincubated for 2 hrs followed by LPS stimulation and measured after 24 hrs by ELISA assay; assay type: functional, cell-based; settings: dose 0.75-3 µM, time 26.0 hrs
[17] = target: T1, Inhibitor of nuclear factor kappa-B kinase subunit alpha/beta (Mus musculus); test: Inhibition of IKKalpha/beta in LPS-stimulated mouse RAW264.7 cells assessed as inhibition of IkappaB alpha degradation at 3 uM preincubated with DTT for 30 mins and later incubated with cells for 2 hrs followed by LPS stimulation for 10 mins by immunoblot anlaysis; settings: time 160.0 min
RAW264.7 [18] = test: Inhibition of LPS-induced NO production in mouse RAW264.7 cells at 3 uM preincubated with DTT for 30 mins and later incubated with cells for 2 hrs followed by LPS stimulation for 24 hrs by Griess-reagent based assay; assay type: functional, cell-based; settings: time 1590.0 min
[19] = target: T1, Inhibitor of nuclear factor kappa-B kinase subunit alpha/beta (Mus musculus); test: Inhibition of IKKalpha/beta in LPS-stimulated mouse RAW264.7 cells assessed as inhibition of IkappaB alpha phosphorylation preincubated for 2 hrs followed by LPS stimulation for 5 mins by immunoblot anlaysis; settings: dose 0.75-3 µM, time 125.0 min
RAW264.7 [20] = test: Inhibition of LPS-induced COX2 protein expression in mouse RAW264.7 cells at 0.75 to 3 uM preincubated for 2 hrs followed by LPS stimulation for 24 hrs by Western blot analysis; assay type: functional, cell-based; settings: dose 0.75-3 µM, time 26.0 hrs
RAW264.7 [21] = test: Inhibition of ERK phosphorylation in LPS-induced mouse RAW264.7 cells at 0.75 to 3 uM preincubated for 2 hrs followed by LPS stimulation and measured after 30 mins by immunoblotting assay; settings: dose 0.75-3 µM, time 150.0 min
[22] = target: MAP kinase p38 (Mus musculus) (UniProt P47811+O08911+Q9WUI1+Q9Z1B7); test: Inhibition of p38 MAPK phosphorylation in LPS-induced mouse RAW264.7 cells at 0.75 to 3 uM preincubated for 2 hrs followed by LPS stimulation and measured after 30 mins by immunoblotting assay; settings: dose 0.75-3 µM, time 150.0 min
[23] = target: T1, Inhibitor of nuclear factor kappa-B kinase subunit alpha/beta (Mus musculus); test: Inhibition of IKKalpha/beta in LPS-stimulated mouse RAW264.7 cells assessed as inhibition of IkappaB alpha phosphorylation at 3 uM preincubated with DTT for 30 mins and later incubated with cells for 2 hrs followed by LPS stimulation for 5 mins by immunoblot anlaysis; settings: time 155.0 min
[24] = target: T1, Inhibitor of nuclear factor kappa-B kinase subunit alpha/beta (Mus musculus); test: Inhibition of IKKalpha/beta phosphorylation in LPS-induced mouse RAW264.7 cells incubated for 2 hrs followed by LPS stimulation and measured after 5 mins by immunoblotting assay; settings: dose 0.75-3 µM, time 125.0 min
RAW264.7 [25] = test: Anti-inflammatory activity against LPS-stimulated mouse RAW264.7 cells assessed as decrease in TNF-alpha production at 0.75 to 3 uM preincubated for 2 hrs followed by LPS stimulation and measured after 24 hrs by ELISA assay; assay type: functional, cell-based; settings: dose 0.75-3 µM, time 26.0 hrs

Sequence of c-Jun N-terminal kinase (Mus musculus) (Q61831 whole entry, looked up): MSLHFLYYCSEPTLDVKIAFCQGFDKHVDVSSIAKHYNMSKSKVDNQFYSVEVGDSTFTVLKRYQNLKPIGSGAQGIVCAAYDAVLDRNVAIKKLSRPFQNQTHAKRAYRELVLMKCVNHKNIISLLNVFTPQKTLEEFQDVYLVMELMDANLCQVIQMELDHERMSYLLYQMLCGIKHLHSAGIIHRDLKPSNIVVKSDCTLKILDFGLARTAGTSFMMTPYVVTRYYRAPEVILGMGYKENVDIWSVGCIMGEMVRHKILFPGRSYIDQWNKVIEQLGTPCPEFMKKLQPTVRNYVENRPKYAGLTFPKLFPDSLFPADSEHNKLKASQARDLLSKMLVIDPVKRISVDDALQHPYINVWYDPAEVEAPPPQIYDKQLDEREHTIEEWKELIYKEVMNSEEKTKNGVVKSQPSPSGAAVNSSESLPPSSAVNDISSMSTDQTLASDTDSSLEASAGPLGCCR
Sequence of c-Jun N-terminal kinase (Mus musculus) (Q91Y86 whole entry, looked up): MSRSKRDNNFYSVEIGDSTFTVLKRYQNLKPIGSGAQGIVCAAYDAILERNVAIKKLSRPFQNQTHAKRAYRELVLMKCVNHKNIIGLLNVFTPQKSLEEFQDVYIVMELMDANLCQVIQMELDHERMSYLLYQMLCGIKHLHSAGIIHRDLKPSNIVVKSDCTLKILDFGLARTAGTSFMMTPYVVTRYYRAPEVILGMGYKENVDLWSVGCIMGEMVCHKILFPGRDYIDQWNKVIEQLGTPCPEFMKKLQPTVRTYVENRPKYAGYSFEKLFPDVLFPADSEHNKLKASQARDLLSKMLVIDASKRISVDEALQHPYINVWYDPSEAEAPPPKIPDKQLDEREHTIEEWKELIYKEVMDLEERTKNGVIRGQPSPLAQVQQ
Sequence of c-Jun N-terminal kinase (Mus musculus) (Q9WTU6 whole entry, looked up): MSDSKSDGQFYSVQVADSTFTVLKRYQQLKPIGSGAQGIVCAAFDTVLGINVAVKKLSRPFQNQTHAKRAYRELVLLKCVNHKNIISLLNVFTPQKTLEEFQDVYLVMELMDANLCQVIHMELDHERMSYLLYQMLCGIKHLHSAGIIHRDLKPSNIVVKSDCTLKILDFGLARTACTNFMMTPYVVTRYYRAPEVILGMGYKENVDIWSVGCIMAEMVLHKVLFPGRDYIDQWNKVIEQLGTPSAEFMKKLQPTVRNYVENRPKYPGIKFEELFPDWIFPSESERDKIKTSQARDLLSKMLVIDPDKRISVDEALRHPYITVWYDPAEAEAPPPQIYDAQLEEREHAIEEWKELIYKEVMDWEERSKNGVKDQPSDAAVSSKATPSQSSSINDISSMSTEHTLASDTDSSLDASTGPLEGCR

| Structure (SMILES) | IC50 (RAW264.7 [4]) [µM] | Activity (RAW264.7 [7]) | also measured |
| --- | --- | --- | --- |
| COc1cc(/C=C/C(=O)CC(=O)/C=C/c2ccc(O)c(OC)c2)ccc1O [CURCUMIN] | 3.5 | – | Activity (RAW264.7 [1]): Active; inhibition (RAW264.7 [2]): Active; Activity (RAW264.7 [3]): Active; inhibition (RAW264.7 [5]): Active; Activity (RAW264.7 [6]): Active |
| C=C1C(=O)O[C@@H]2/C=C(\C)CC/C=C(\CO)C[C@@H](O)[C@@H]12 | > 20 | Non-Toxic | – |
| C=C1C(=O)O[C@@H]2/C=C(\CO)CC/C=C(\C=O)[C@H](O)[C@@H](OC(=O)/C(C)=C\C)[C@@H]12 | 9.1 | Non-Toxic | – |
| C=C1C(=O)O[C@@H]2/C=C(\CO)CC/C=C(\CO)[C@H](OC(C)=O)[C@@H](OC(=O)/C(C)=C\C)[C@@H]12 | 9.3 | Non-Toxic | – |
| C=C1C(=O)O[C@@H]2C[C@H]3CC/C=C(/C[C@@H](OC(=O)/C(C)=C/C)[C@@H]12)[C@H](O)OC3 | > 20 | Non-Toxic | – |
| C=C1C(=O)O[C@@H]2C[C@H](CO)CC/C=C(\CO)C[C@@H](OC(=O)C=C(C)C)[C@@H]12 | 5.6 | Non-Toxic | – |
| C=C1C(=O)O[C@@H]2/C=C(\CO)CC/C=C(\C=O)[C@H](OC(C)=O)[C@@H](OC(=O)/C(C)=C\C)[C@@H]12 | 16.5 | Non-Toxic | – |
| C=C1C(=O)O[C@@H]2/C=C3/CC/C=C(\[C@H](O)OC3)[C@H](OC)[C@@H](OC(=O)/C(C)=C\C)[C@@H]12 | > 20 | Non-Toxic | – |
| C=C1C(=O)O[C@@H]2/C=C3/CC/C=C(\[C@H](O)OC3)[C@H](O)[C@@H](OC(=O)/C(C)=C/C)[C@@H]12 | > 20 | Non-Toxic | – |
| C=C1C(=O)O[C@@H]2/C=C(\CO)CC/C=C(\CO)[C@H](OC(C)=O)[C@@H](OC(=O)/C(C)=C/C)[C@@H]12 | 10 | Non-Toxic | – |
| C=C1C(=O)O[C@@H]2/C=C(\CO)CC/C=C(\C=O)[C@H](OC(C)=O)[C@@H](OC(=O)/C(C)=C/C)[C@@H]12 | > 20 | Non-Toxic | – |
| C=C(C)C(=O)O[C@@H]1C/C(CO)=C/CC[C@@H](CO)C[C@H]2OC(=O)C(=C)[C@H]12 | 2.7 | Non-Toxic | – |
| C=C1C(=O)O[C@@H]2/C=C(\CO)CC/C=C(\C=O)[C@H](OC)[C@@H](OC(=O)/C(C)=C\C)[C@@H]12 | 7.9 | Non-Toxic | – |
| C=C1C(=O)O[C@@H]2C[C@H](CO)CCC=C(CO)C[C@@H](OC(=O)C(C)C)[C@@H]12 | 3.4 | Non-Toxic | – |
| C=C1C(=O)O[C@@H]2C[C@H](CO)CC/C=C(\COC(=O)C(C)C)C[C@@H](O)[C@@H]12 | > 20 | Non-Toxic | – |
| C=C(C)C(=O)O[C@H]1[C@H]2C(=C)C(=O)O[C@@H]2/C=C(\CO)CC/C=C(\CO)[C@@H]1OC(C)=O | 9.9 | Non-Toxic | – |
| C=C1C(=O)O[C@H]2[C@H]1[C@H](OC(=O)/C(C)=C\C)[C@@H](OC)C(=O)[C@@H]1CC[C@@](O)(CO)[C@H]21 | > 20 | Non-Toxic | – |
| C=C1C(=O)O[C@@H]2C[C@H](CO)CC/C=C(\CO)C[C@@H](OC(=O)/C(C)=C\C)[C@@H]12 | 2.3 | Non-Toxic | – |
| C=C(C)C(=O)O[C@@H]1C=C(C=O)[C@@H]2CC[C@@](O)(CO)[C@@H]2[C@H]2OC(=O)C(=C)[C@@H]21 | 15.4 | Non-Toxic | – |
| C=C1C(=O)O[C@@H]2/C=C(\CO)CC/C=C(\C=O)[C@H](OC)[C@@H](OC(=O)C(C)C)[C@@H]12 | > 20 | Non-Toxic | – |
| C=C1C(=O)O[C@@H]2C[C@H](CO)CC/C=C(\CO)C[C@@H](O)[C@@H]12 | > 20 | Non-Toxic | – |
| C=C1C(=O)O[C@@H]2C[C@H](COC(=O)/C(C)=C\C)CC/C=C(\CO)C[C@@H](O)[C@@H]12 | 1.4 | Non-Toxic | inhibition (RAW264.7 [8]): Dose-Dependent Effect; inhibition [9]: Active; inhibition [10]: Active; Activity (RAW264.7 [11]): Active; inhibition [12]: inactive; Activity [13]: Active; inhibition [14]: Active; inhibition (RAW264.7 [4]; time 26.0 hrs): Dose-Dependent Effect; inhibition (RAW264.7 [15]): Active; Activity (RAW264.7 [16]): Active; inhibition [17]: inactive; inhibition (RAW264.7 [18]): inactive; inhibition [19]: Dose-Dependent Effect; inhibition (RAW264.7 [20]): Active; inhibition (RAW264.7 [21]): inactive; inhibition [22]: inactive; inhibition [23]: inactive; inhibition [24]: Dose-Dependent Effect; Activity (RAW264.7 [25]): Active |
| C=C1C(=O)O[C@@H]2/C=C(\CO)CCC=C(CO)[C@H](OC(C)=O)[C@@H](OC(=O)C(C)C)[C@@H]12 | 10.2 | Non-Toxic | – |
| C=C1C(=O)O[C@@H]2C[C@H](CO)CC/C=C(\CO)C[C@@H](OC(=O)/C(C)=C/C)[C@@H]12 | 6.9 | Non-Toxic | – |
| C=C1C(=O)O[C@H]2[C@H]1[C@H](OC(=O)/C(C)=C/C)[C@@H](OC)C(=O)[C@@H]1CC[C@@](O)(CO)[C@H]21 | > 20 | Non-Toxic | – |
